Assay results taken from patent publication US20220323429A1, “PIMAVANSERIN FOR TREATING NEURODEGENERATIVE DISEASES” (ACADIA Pharmaceuticals Inc., priority 2019, published 2022).

Tests used:
[1] = In-use Stability Assay (HPLC) of pimavanserin 34 mg capsule contents in liquid/soft food vehicles; type: physicochemical; settings: for Assay: ambient; for Time 0 (%) assay: time 0, average (n=6) accuracy/recovery
Method: (§1) Analytical HPLC Stability Study experiments (Example 1) were performed on Agilent 1200 Series, or equivalent; Waters XBridge C18 column, 5 μm 150×4.6 mm; mobile phase: Solvent A: 50 mM ammonium bicarbonate, pH 8.0; Solvent B: acetonitrile/methanol, 80:20 (v/v); Flow rate: 1 mL/min; Inj. Volume 20 μL; Autosampler Temp. 5° C.; column temperature: 40° C., detection UV at 210 nm; sample concentration (as free base) assay: 0.068 mg/mL, impurity: 0.68 mg/mL; standard concentration (as free base) 0.068 mg/mL; PLOQ Std. 0.05% of 0.68 mg/mL; SST solution, 1% of 0.68 mg/mL (impurities A, C, D, E, F, and G); diluent for standards 80/20 (v/v) ethanol/water; diluent for samples, ethanol; run time 40 min; gradient method: 0 min mobile phase A (90%) and mobile phase B (10%) to 30 min mobile phase A (0%), and mobile phase B (100%); then 30.1 min to 40 min mobile phase A (90%), mobile phase B (10%).
The stability of pimavanserin for administration via a nasogastric (NG) tube was assessed by sprinkling the content of one pimavanserin 34 mg capsule in water, applesauce, vanilla Ensure, and non-pulp orange juice. Samples were tested at time 0, 2, 4, and 24 hours after storage at ambient conditions. Samples were prepared in triplicate and average (n=6) accuracy/recovery results from the assay method were used at time 0.
For each sample, one capsule was weighed, and the content of the capsule dropped into a 500 mL volumetric flask containing the amount of vehicle specified in Table 1. The empty capsule shell was weighed and discarded. The flasks were gently swirled to ensure the capsule contents were visually incorporated with the vehicle. The flasks were kept at ambient temperature for each time point 2, 4, and 24 hours. Time 0 samples were processed immediately.
At the specified time point, a stir bar and approximately 450 mL of diluent were added to the flask. The samples were stirred vigorously for 2 hours, and then left on the bench overnight. The following day the flasks were sonicated for approximately 15-30 minutes. The stir bar was removed and rinsed carefully with diluent into the flask, and then the flask was diluted to volume with diluent and mixed well by inversion. An aliquot of each solution was centrifuged for 5 minutes at 10000 rpm. The supernatant was transferred to a HPLC vial and injected for analysis.

[2] = In-use stability impurity analysis (HPLC) of pimavanserin 34 mg capsule contents in vehicles; type: physicochemical; settings: for Impurity D / Impurity Unknown RRT 0.90 / Impurity Unknown RRT 0.99 / Impurity Unknown RRT 1.10 / Total Imp.: ambient
Method: as §1
Samples for the assessment of the degradation products stability from solutions or mixtures of pimavanserin in vehicles were prepared as follows. Four samples (n=4) were prepared for each vehicle as follows.
For each sample, one capsule was weighed, and the content of each capsule was dropped into a 50 mL volumetric flask and the empty capsule shell was weighed and discarded. The specified amount of each vehicle was added as specified in Table 3, below.
The flasks were gently swirled to ensure the capsule contents were visually incorporated with the vehicle. The flasks were kept on the bench at ambient temperature for each time point: 2, 4, and 24 hours. Time 0 samples were processed immediately. At the specified time point a stir bar and approximately 45 mL of diluent were added to the flask. The solution was stirred vigorously for 2 hours, and the flask was left on the bench overnight. The next day the flasks were sonicated for approximately 30 minutes. The stir bar was removed and rinsed carefully with diluent into the flask, and the flask was diluted to volume with diluent and mixed well by inversion. An aliquot of each solution was centrifuged for 5 minutes at 10000 rpm. The supernatant was transferred to a HPLC vial, and injected for analysis.

Compound: CC(C)COc1ccc(CNC(=O)N(Cc2ccc(F)cc2)C2CCN(C)CC2)cc1 [Pimavanserin, N-(4-Fluorophenylmethyl)-N-(1-methylpiperidin-4-yl)-N′-(4-(2-methylpropyloxy)phenylmethyl)carbamide]
- Assay ([1]; 34 mg capsule in Ensure 60 mL, T = 2 h): 100.3%
- Assay ([1]; 34 mg capsule in Ensure 60 mL, T = 4 h): 100.7%
- Assay ([1]; 34 mg capsule in Ensure 60 mL, T = 24 h): 98.1%
- Assay ([1]; 34 mg capsule in applesauce 40 g, T = 2 h): 99.9%
- Assay ([1]; 34 mg capsule in applesauce 40 g, T = 4 h): 97.7%
- Assay ([1]; 34 mg capsule in applesauce 40 g, T = 24 h): 96.3%
- Assay ([1]; 34 mg capsule in non-pulp orange juice 60 mL, T = 2 h): 99.2%
- Assay ([1]; 34 mg capsule in non-pulp orange juice 60 mL, T = 4 h): 98.0%
- Assay ([1]; 34 mg capsule in non-pulp orange juice 60 mL, T = 24 h): 98.3%
- Assay ([1]; 34 mg capsule in water 40 mL, T = 2 h): 97.7%
- Assay ([1]; 34 mg capsule in water 40 mL, T = 4 h): 95.6%
- Assay ([1]; 34 mg capsule in water 40 mL, T = 24 h): 99.3%
- Absolute Difference from Time 0 ([1]; Ensure, T = 2 h): 0.3%
- Absolute Difference from Time 0 ([1]; Ensure, T = 4 h): 0.7%
- Absolute Difference from Time 0 ([1]; Ensure, T = 24 h): 1.9%
- Absolute Difference from Time 0 ([1]; applesauce, T = 2 h): 2.0%
- Absolute Difference from Time 0 ([1]; applesauce, T = 4 h): 4.2%
- Absolute Difference from Time 0 ([1]; applesauce, T = 24 h): 5.6%
- Time 0 (%) assay ([1]; applesauce): 101.9%
- Assay values difference from time 0 ([1]; individual capsules, up to 24 hours, all vehicles): ≤ 5%
- Absolute Difference from Time 0 ([1]; orange juice, T = 2 h): 1.1%
- Absolute Difference from Time 0 ([1]; orange juice, T = 4 h): 2.3%
- Absolute Difference from Time 0 ([1]; orange juice, T = 24 h): 2.0%
- Time 0 (%) assay ([1]; orange juice): 100.3%
- stability in all vehicles ([1]; over 24 hours at ambient room temperature): acceptable
- Time 0 (%) assay ([1]; vanilla Ensure): 100.0%
- Absolute Difference from Time 0 ([1]; water, T = 2 h): 1.2%
- Absolute Difference from Time 0 ([1]; water, T = 4 h): 3.3%
- Absolute Difference from Time 0 ([1]; water, T = 24 h): 0.4%
- Time 0 (%) assay ([1]; water): 98.9%
- Impurity D ([2]; Ensure 5 mL, T = 0): 0.22 % w/w
- Impurity Unknown RRT 0.90 ([2]; Ensure 5 mL, T = 0): 0.08 % w/w
- Impurity Unknown RRT 0.99 ([2]; Ensure 5 mL, T = 0): 0.09 % w/w
- Impurity Unknown RRT 1.10 ([2]; Ensure 5 mL, T = 0): 0.06 % w/w
- Total Imp. ([2]; Ensure 5 mL, T = 0): 0.45 % w/w
- Impurity D ([2]; Ensure 5 mL, T = 2 h): 0.20 % w/w
- Impurity Unknown RRT 0.90 ([2]; Ensure 5 mL, T = 2 h): 0.08 % w/w
- Impurity Unknown RRT 0.99 ([2]; Ensure 5 mL, T = 2 h): 0.10 % w/w
- Impurity Unknown RRT 1.10 ([2]; Ensure 5 mL, T = 2 h): 0.05 % w/w
- Total Imp. ([2]; Ensure 5 mL, T = 2 h): 0.43 % w/w
- Impurity D ([2]; Ensure 5 mL, T = 4 h): 0.23 % w/w
- Impurity Unknown RRT 0.90 ([2]; Ensure 5 mL, T = 4 h): 0.08 % w/w
- Impurity Unknown RRT 0.99 ([2]; Ensure 5 mL, T = 4 h): 0.09 % w/w
- Impurity Unknown RRT 1.10 ([2]; Ensure 5 mL, T = 4 h): 0.06 % w/w
- Total Imp. ([2]; Ensure 5 mL, T = 4 h): 0.46 % w/w
- Impurity D ([2]; Ensure 5 mL, T = 24 h): 0.23 % w/w
- Impurity Unknown RRT 0.90 ([2]; Ensure 5 mL, T = 24 h): 0.07 % w/w
- Impurity Unknown RRT 0.99 ([2]; Ensure 5 mL, T = 24 h): 0.10 % w/w
- Impurity Unknown RRT 1.10 ([2]; Ensure 5 mL, T = 24 h): 0.06 % w/w
- Total Imp. ([2]; Ensure 5 mL, T = 24 h): 0.46 % w/w
- change in impurity profile ([2]; any vehicle, over 24 hours at ambient room temperature): no significant change
- Impurity D ([2]; applesauce 5 g, T = 0): 0.19 % w/w
- Impurity Unknown RRT 0.99 ([2]; applesauce 5 g, T = 0): 0.09 % w/w
- Total Imp. ([2]; applesauce 5 g, T = 0): 0.28 % w/w
- Impurity D ([2]; applesauce 5 g, T = 2 h): 0.21 % w/w
- Impurity Unknown RRT 0.99 ([2]; applesauce 5 g, T = 2 h): 0.10 % w/w
- Total Imp. ([2]; applesauce 5 g, T = 2 h): 0.31 % w/w
- Impurity D ([2]; applesauce 5 g, T = 4 h): 0.22 % w/w
- Impurity Unknown RRT 0.99 ([2]; applesauce 5 g, T = 4 h): 0.10 % w/w
- Total Imp. ([2]; applesauce 5 g, T = 4 h): 0.32 % w/w
- Impurity D ([2]; applesauce 5 g, T = 24 h): 0.22 % w/w
- Impurity Unknown RRT 0.99 ([2]; applesauce 5 g, T = 24 h): 0.09 % w/w
- Total Imp. ([2]; applesauce 5 g, T = 24 h): 0.31 % w/w
- individual and total impurities across timepoints ([2]; each vehicle, 0-24 h): consistent between all timepoints
- Impurity D ([2]; orange juice 5 mL, T = 0): 0.17 % w/w
- Impurity Unknown RRT 0.99 ([2]; orange juice 5 mL, T = 0): 0.09 % w/w
- Total Imp. ([2]; orange juice 5 mL, T = 0): 0.26 % w/w
- Impurity D ([2]; orange juice 5 mL, T = 2 h): 0.17 % w/w
- Impurity Unknown RRT 0.99 ([2]; orange juice 5 mL, T = 2 h): 0.09 % w/w
- Total Imp. ([2]; orange juice 5 mL, T = 2 h): 0.26 % w/w
- Impurity D ([2]; orange juice 5 mL, T = 4 h): 0.17 % w/w
- Impurity Unknown RRT 0.99 ([2]; orange juice 5 mL, T = 4 h): 0.09 % w/w
- Total Imp. ([2]; orange juice 5 mL, T = 4 h): 0.26 % w/w
- Impurity D ([2]; orange juice 5 mL, T = 24 h): 0.17 % w/w
- Impurity Unknown RRT 0.99 ([2]; orange juice 5 mL, T = 24 h): 0.09 % w/w
- Total Imp. ([2]; orange juice 5 mL, T = 24 h): 0.26 % w/w
- additional unknown impurities ([2]; two impurities, samples extracted from vanilla Ensure, time 0): < 0.1%
- Impurity D ([2]; water 5 mL, T = 0): 0.23 % w/w
- Impurity Unknown RRT 0.99 ([2]; water 5 mL, T = 0): 0.10 % w/w
- Total Imp. ([2]; water 5 mL, T = 0): 0.33 % w/w
- Impurity D ([2]; water 5 mL, T = 2 h): 0.24 % w/w
- Impurity Unknown RRT 0.99 ([2]; water 5 mL, T = 2 h): 0.10 % w/w
- Total Imp. ([2]; water 5 mL, T = 2 h): 0.34 % w/w
- Impurity D ([2]; water 5 mL, T = 4 h): 0.23 % w/w
- Impurity Unknown RRT 0.99 ([2]; water 5 mL, T = 4 h): 0.10 % w/w
- Total Imp. ([2]; water 5 mL, T = 4 h): 0.33 % w/w
- Impurity D ([2]; water 5 mL, T = 24 h): 0.25 % w/w
- Impurity Unknown RRT 0.99 ([2]; water 5 mL, T = 24 h): 0.10 % w/w
- Total Imp. ([2]; water 5 mL, T = 24 h): 0.35 % w/w
